Measurements taken from paper PMC9609070 (ACS Omega, 2022).

Experiment: Apparent thermodynamic functions of dissolution
Format: physicochemical
Settings: Thm=303.0 K

Cc1cnc(NC(=O)C2=C(O)c3ccccc3S(=O)(=O)N2C)s1 [Meloxicam, 4-hydroxy-2-methyl-N-(5-methyl-2-thiazolyl)-2H-1,2-benzothiazine-3-carboxamide-1,1-dioxide]
TΔsolnS° (NMP+water, x1=0.100): 0.52 kJ·mol^–1
ΔsolnG° (apparent Gibbs energy of dissolution) (NMP+water, x1=0.100): 27.40 kJ·mol^–1
ΔsolnH° (apparent enthalpy of dissolution) (NMP+water, x1=0.100): 27.92 kJ·mol^–1
ΔsolnS° (apparent entropy of dissolution) (NMP+water, x1=0.100): 1.71 J·mol^–1·K^–1
TΔsolnS° (NMP+water, x1=0.200): 2.55 kJ·mol^–1
ΔsolnG° (apparent Gibbs energy of dissolution) (NMP+water, x1=0.200): 22.34 kJ·mol^–1
ΔsolnH° (apparent enthalpy of dissolution) (NMP+water, x1=0.200): 24.89 kJ·mol^–1
ΔsolnS° (apparent entropy of dissolution) (NMP+water, x1=0.200): 8.41 J·mol^–1·K^–1
TΔsolnS° (NMP+water, x1=0.300): 3.08 kJ·mol^–1
ΔsolnG° (apparent Gibbs energy of dissolution) (NMP+water, x1=0.300): 18.38 kJ·mol^–1
ΔsolnH° (apparent enthalpy of dissolution) (NMP+water, x1=0.300): 21.46 kJ·mol^–1
ΔsolnS° (apparent entropy of dissolution) (NMP+water, x1=0.300): 10.18 J·mol^–1·K^–1
TΔsolnS° (NMP+water, x1=0.400): 2.09 kJ·mol^–1
ΔsolnG° (apparent Gibbs energy of dissolution) (NMP+water, x1=0.400): 15.31 kJ·mol^–1
ΔsolnH° (apparent enthalpy of dissolution) (NMP+water, x1=0.400): 17.40 kJ·mol^–1
ΔsolnS° (apparent entropy of dissolution) (NMP+water, x1=0.400): 6.89 J·mol^–1·K^–1
TΔsolnS° (NMP+water, x1=0.500): 1.77 kJ·mol^–1
ΔsolnG° (apparent Gibbs energy of dissolution) (NMP+water, x1=0.500): 13.00 kJ·mol^–1
ΔsolnH° (apparent enthalpy of dissolution) (NMP+water, x1=0.500): 14.78 kJ·mol^–1
ΔsolnS° (apparent entropy of dissolution) (NMP+water, x1=0.500): 5.85 J·mol^–1·K^–1
TΔsolnS° (NMP+water, x1=0.600): 6.45 kJ·mol^–1
ΔsolnG° (apparent Gibbs energy of dissolution) (NMP+water, x1=0.600): 11.42 kJ·mol^–1
ΔsolnH° (apparent enthalpy of dissolution) (NMP+water, x1=0.600): 17.87 kJ·mol^–1
ΔsolnS° (apparent entropy of dissolution) (NMP+water, x1=0.600): 21.28 J·mol^–1·K^–1
TΔsolnS° (NMP+water, x1=0.700): 15.75 kJ·mol^–1
ΔsolnG° (apparent Gibbs energy of dissolution) (NMP+water, x1=0.700): 10.45 kJ·mol^–1
ΔsolnH° (apparent enthalpy of dissolution) (NMP+water, x1=0.700): 26.20 kJ·mol^–1
ΔsolnS° (apparent entropy of dissolution) (NMP+water, x1=0.700): 51.98 J·mol^–1·K^–1
TΔsolnS° (NMP+water, x1=0.800): 14.58 kJ·mol^–1
ΔsolnG° (apparent Gibbs energy of dissolution) (NMP+water, x1=0.800): 9.52 kJ·mol^–1
ΔsolnH° (apparent enthalpy of dissolution) (NMP+water, x1=0.800): 24.10 kJ·mol^–1
ΔsolnS° (apparent entropy of dissolution) (NMP+water, x1=0.800): 48.13 J·mol^–1·K^–1
TΔsolnS° (NMP+water, x1=0.900): 10.89 kJ·mol^–1
ΔsolnG° (apparent Gibbs energy of dissolution) (NMP+water, x1=0.900): 8.60 kJ·mol^–1
ΔsolnH° (apparent enthalpy of dissolution) (NMP+water, x1=0.900): 19.49 kJ·mol^–1
ΔsolnS° (apparent entropy of dissolution) (NMP+water, x1=0.900): 35.93 J·mol^–1·K^–1
TΔsolnS° (neat NMP, x1=1.000): 13.06 kJ·mol^–1
ΔsolnG° (apparent Gibbs energy of dissolution) (neat NMP, x1=1.000): 7.99 kJ·mol^–1
ΔsolnH° (apparent enthalpy of dissolution) (neat NMP, x1=1.000): 21.05 kJ·mol^–1
ΔsolnS° (apparent entropy of dissolution) (neat NMP, x1=1.000): 43.10 J·mol^–1·K^–1
